# The source made the active and inactive calls. The rule behind the calls is not given here.
# Assays:
# HepG2 [1] = assay: Induction of apoptosis in human HepG2 cells assessed as necrotic cells at 4 uM measured after 24 hrs by annexinV-FITC/propidium iodide staining based flow cytometry (reference value: 0.77 %); format: functional
# HepG2 [2] = assay: Induction of apoptosis in human HepG2 cells assessed as necrotic cells at 8 uM measured after 24 hrs by annexinV-FITC/propidium iodide staining based flow cytometry (reference value: 0.77 %); format: functional
# HepG2 [3] = assay: Induction of apoptosis in human HepG2 cells assessed as formation of apoptotic bodies at 4 to 8 uM by fluorescent microscopic analysis; format: functional, cell-based; conditions: dose 4-8 µM
# A549 = assay: Cytotoxicity against human A549 cells assessed as cell growth inhibition measured after 24 hrs by MTT assay; format: functional, cell-based; conditions: A549, 24 h
# MCF7 = assay: Cytotoxicity against human MCF7 cells assessed as cell growth inhibition measured after 24 hrs by MTT assay; format: functional, cell-based; conditions: MCF7, 24 h
# HepG2 [4] = assay: Cytotoxicity against human HepG2 cells assessed as cell growth inhibition measured after 24 hrs by MTT assay; format: functional, cell-based; conditions: HepG2, 24 h
# HepG2 [5] = assay: Induction of apoptosis in human HepG2 cells assessed as cell shrinkage at 4 to 8 uM by fluorescent microscopic analysis; format: functional, cell-based; conditions: dose 4-8 µM
# HepG2 [6] = assay: Cell cycle arrest in human HepG2 cells assessed as accumulation at G2/M phase at 4 uM measured after 24 hrs by RNaseA/propidium iodide staining based flow cytometry (reference value: 22.9 %); format: functional
# HepG2 [7] = assay: Cell cycle arrest in human HepG2 cells assessed as accumulation at S phase at 4 uM measured after 24 hrs by RNaseA/propidium iodide staining based flow cytometry (reference value: 24.3 %); format: functional
# HepG2 [8] = assay: Induction of apoptosis in human HepG2 cells assessed as late apoptotic cells at 4 uM measured after 24 hrs by annexinV-FITC/propidium iodide staining based flow cytometry (reference value: 5.45 %); format: functional
# HepG2 [9] = assay: Induction of apoptosis in human HepG2 cells assessed as late apoptotic cells at 8 uM measured after 24 hrs by annexinV-FITC/propidium iodide staining based flow cytometry (reference value: 5.45 %); format: functional
# HepG2 [10] = assay: Induction of apoptosis in human HepG2 cells assessed as early apoptotic cells at 8 uM measured after 24 hrs by annexinV-FITC/propidium iodide staining based flow cytometry (reference value: 2.03 %); format: functional
# HepG2 [11] = assay: Induction of apoptosis in human HepG2 cells assessed as live cells at 8 uM measured after 24 hrs by annexinV-FITC/propidium iodide staining based flow cytometry (reference value: 91.7 %); format: functional
# HepG2 [12] = assay: Induction of apoptosis in human HepG2 cells assessed as early apoptotic cells at 4 uM measured after 24 hrs by annexinV-FITC/propidium iodide staining based flow cytometry (reference value: 2.03 %); format: functional
# HepG2 [13] = assay: Cell cycle arrest in human HepG2 cells assessed as accumulation at G2/M phase at 8 uM measured after 24 hrs by RNaseA/propidium iodide staining based flow cytometry (reference value: 22.9 %); format: functional
# HepG2 [14] = assay: Cell cycle arrest in human HepG2 cells assessed as accumulation at G0/G1 phase at 4 uM measured after 24 hrs by RNaseA/propidium iodide staining based flow cytometry (reference value: 49.3 %); format: functional
# HepG2 [15] = assay: Cell cycle arrest in human HepG2 cells assessed as accumulation at S phase at 8 uM measured after 24 hrs by RNaseA/propidium iodide staining based flow cytometry (reference value: 24.3 %); format: functional
# L02 = assay: Cytotoxicity against human L02 cells assessed as cell growth inhibition measured after 24 hrs by MTT assay; format: cell-based; conditions: L02, 24 h
# HepG2 [16] = assay: Cell cycle arrest in human HepG2 cells assessed as accumulation at G0/G1 phase at 8 uM measured after 24 hrs by RNaseA/propidium iodide staining based flow cytometry (reference value: 49.3 %); format: functional
# HepG2 [17] = assay: Induction of apoptosis in human HepG2 cells assessed as membrane blebbing at 4 to 8 uM by fluorescent microscopic analysis; format: functional, cell-based; conditions: dose 4-8 µM
# HepG2 [18] = assay: Induction of apoptosis in human HepG2 cells assessed as live cells at 4 uM measured after 24 hrs by annexinV-FITC/propidium iodide staining based flow cytometry (reference value: 91.7 %); format: functional
# HepG2 [19] = assay: Induction of apoptosis in human HepG2 cells assessed as discernible cell rounding at 4 to 8 uM by fluorescent microscopic analysis; format: functional, cell-based; conditions: dose 4-8 µM
compound,measurement,setting,value
C[C@@H]1CC[C@@]2(OC1)O[C@H]1C[C@H]3[C@@H]4CC=C5C[C@@H](OC(=O)CCC(=O)N6CCNCC6)CC[C@]5(C)[C@H]4CC[C@]3(C)[C@H]1[C@@H]2C,Activity,HepG2 [1],0.093%
same,Activity,HepG2 [2],0.18%
same,Activity,HepG2 [3],Active
same,IC50,A549,2400 nM
same,IC50,MCF7,2800 nM
same,IC50,HepG2 [4],1900 nM
same,Activity,HepG2 [5],Active
same,Activity,HepG2 [6],18.6%
same,Activity,HepG2 [7],21.5%
same,Activity,HepG2 [8],5.12%
same,Activity,HepG2 [9],7.85%
same,Activity,HepG2 [10],13.2%
same,Activity,HepG2 [11],78.7%
same,Activity,HepG2 [12],6.08%
same,Activity,HepG2 [13],17.3%
same,Activity,HepG2 [14],57.4%
same,Activity,HepG2 [15],17.5%
same,IC50,L02,18600 nM
same,Activity,HepG2 [16],64.2%
same,Activity,HepG2 [17],Active
same,Activity,HepG2 [18],88.7%
same,Activity,HepG2 [19],Active

# Reference: ChEMBL document CHEMBL4811221, “Diosgenin Derivatives as Potential Antitumor Agents: Synthesis, Cytotoxicity, and Mechanism of Action” (J Nat Prod, 2021)
